Results taken from patent US20240425464A1, “Substituted Monohydrazides as Potent Antifungal Agents” (University of Kentucky Research Foundation, priority 2023, published 2024).
Converted amounts (≈) assume the structure as drawn. Read-outs that look alike come from different tables or passages of the source.

Legend:
Test in all cases: MIC determination by in vitro antifungal assay
Format in all cases: cell-based, Candida auris
C. auris AR Bank #381 = test system: C. auris AR Bank #381
Experimental: (§1) The antifungal agent amphotericin B (AmB) was purchased from VWR (Radnor PA, USA). AmB was dissolved in DMSO at a final concentration of 5 mg/mL and was stored at −20° C., protected from light. Candida albicans American Type Culture Collection (ATCC) 10231 (strain A), C. albicans ATCC 64124 (B), and C. albicans ATCC MYA-2876 (C) were obtained from Utah State University. C. albicans ATCC 90819 (D), C. albicans ATCC MYA-2310 (E), C. albicans ATCC MYA-1237 (F), C. albicans ATCC MYA-1003 (G), Candida glabrata ATCC 2001 (H), Candida krusei ATCC 6258 (I), Candida parapsilosis ATCC 22019 (J), Cryptococcus neoformans ATCC MYA-895 (M), Aspergillus terreus ATCC MYA-3633 (N), and Aspergillus flavus ATCC MYA-3631 (0) were obtained from the American Type Culture Collection (ATCC; Manassas, VA, USA). Aspergillus nidulans ATCC 38163 (P) was obtained from University of Kentucky. Clinically derived Aspergillus fumigatus NRRL 163 (Q), A. fumigatus NRRL 5109 (R), and A. fumigatus NRRL 6113 (S) were obtained from Northern Regional Research Laboratory (NRRL). Candida auris 384 (K), C. auris 390 (L), and fungal strains 381-400 (including 10 C. auris (AR Bank #381-390), 3 Candida duobushaemulonii (AR Bank #391, AR Bank #392, and AR Bank #394), 2 Candida haemulonii (AR Bank #393 and AR Bank #395), 1 Kodameae ohmeri (AR Bank #396), 1 C. krusei (AR Bank #397), 1 Candida lusitaniae (AR Bank #398), and 2 Saccharomyces cerevisiae strains (AR Bank #399 and AR Bank #400)) were part of a larger fungal library from the AR Bank maintained by the Centers for Disease Control and Prevention (CDC; Atlanta, GA, USA). Filamentous fungi and yeasts were cultivated at 35° C. in RPMI 1640 medium (with L-glutamine, without sodium bicarbonate, Sigma-Aldrich, St. Louis, MO) buffered to a pH of 7.0 with 0.165 M morpholinepropanesulfonic acid (MOPS) buffer (Sigma-Aldrich). For cytotoxicity assays, HepG2 and the mouse macrophage cell line J774A.1 were obtained from University of Kentucky. The human embryonic kidney cell line, HEK-293, was bought from the ATCC. Mammalian cells were grown in Dulbecco's Modified Eagle's Medium (DMEM) (from VWR) with 10% fetal bovine serum (FBS) (from VWR) and 1% Pen/Strep (from ATCC). Cell lines were cultured at 37° C. with 5% CO2 and passaged by trypsinization with 0.05% trypsin: 0.53 mM EDTA (from Sigma-Aldrich).
(§2) From the actively growing yeast culture, 100 µL were then transferred to 900 μL of RPMI 1640 medium and re-adjusted to achieve OD600 of 0.12 (˜1×10^6 CFU/mL). The cell suspension was further diluted to achieve 1:100 in RPMI 1640 medium.

C. auris AR Bank #382 = test system: C. auris AR Bank #382
Experimental: as §1, §2

C. auris AR Bank #383 = test system: C. auris AR Bank #383
Experimental: as §1, §2

C. auris AR Bank #385 = test system: C. auris AR Bank #385
Experimental: as §1, §2

C. auris AR Bank #386 = test system: C. auris AR Bank #386
Experimental: as §1, §2

C. auris AR Bank #387 = test system: C. auris AR Bank #387
Experimental: as §1, §2

C. auris AR Bank #388 = test system: C. auris AR Bank #388
Experimental: as §1, §2

C. auris AR Bank #389 = test system: C. auris AR Bank #389
Experimental: as §1, §2

[1] = Candidozyma auris, C. auris AR Bank # 381 (Table 2B), read-out: MIC
[2] = Candidozyma auris, C. auris AR Bank # 382 (Table 2B), read-out: MIC
[3] = Candidozyma auris, C. auris AR Bank # 383 (Table 2B), read-out: MIC
[4] = Candidozyma auris, C. auris AR Bank # 385 (Table 2B), read-out: MIC
[5] = Candidozyma auris, C. auris AR Bank # 386 (Table 2B), read-out: MIC
[6] = Candidozyma auris, C. auris AR Bank # 387 (Table 2B), read-out: MIC
[7] = Candidozyma auris, C. auris AR Bank # 388 (Table 2B), read-out: MIC
[8] = Candidozyma auris, C. auris AR Bank # 389 (Table 2B), read-out: MIC

SMILES | MIC (C. auris AR Bank #381; [1]) | MIC (C. auris AR Bank #382; [2]) | MIC (C. auris AR Bank #383; [3]) | MIC (C. auris AR Bank #385; [4]) | MIC (C. auris AR Bank #386; [5]) | MIC (C. auris AR Bank #387; [6]) | MIC (C. auris AR Bank #388; [7]) | MIC (C. auris AR Bank #389; [8]) | other results
O=C(NNc1ccc(Cl)cc1)c1cnccn1 [Compound 9e] |  |  |  |  |  |  |  |  | MIC (C. auris AR Bank #381; C. auris AR Bank #381): 7.8 μg/mL^−1; MIC (C. auris AR Bank #382; C. auris AR Bank #382): 13.6 μg/mL^−1; MIC (C. auris AR Bank #383; C. auris AR Bank #383): 3.9 μg/mL^−1; MIC (C. auris AR Bank #385; C. auris AR Bank #385): 31.3 μg/mL^−1; MIC (C. auris AR Bank #386; C. auris AR Bank #386): 7.8 μg/mL^−1; MIC (C. auris AR Bank #387; C. auris AR Bank #387): 13.6 μg/mL^−1; MIC (C. auris AR Bank #388; C. auris AR Bank #388): 7.8 μg/mL^−1; MIC (C. auris AR Bank #389; C. auris AR Bank #389): 7.8 μg/mL^−1
O=C(NNc1ccc(F)cc1F)c1ncc(F)cc1F [Compound 7g] | 3.9 µg/mL (≈ 13.7 µM) | 1.95 µg/mL (≈ 6.84 µM) | 3.9 µg/mL (≈ 13.7 µM) | 0.98 µg/mL (≈ 3.44 µM) | 1.95 µg/mL (≈ 6.84 µM) | 1.95 µg/mL (≈ 6.84 µM) | 3.9 µg/mL (≈ 13.7 µM) | 3.9 µg/mL (≈ 13.7 µM) | 
O=C(NNc1ccc(F)cc1)c1cccc(F)n1 [Compound 5d] | 0.98 µg/mL (≈ 3.93 µM) | 0.98 µg/mL (≈ 3.93 µM) | 1.95 µg/mL (≈ 7.82 µM) | 0.49 µg/mL (≈ 1.97 µM) | 0.98 µg/mL (≈ 3.93 µM) | 0.49 µg/mL (≈ 1.97 µM) | 0.49 µg/mL (≈ 1.97 µM) | 0.98 µg/mL (≈ 3.93 µM) | 
O=C(NNc1ccc(F)cc1)c1ccccn1 [Compound 2d] |  |  |  |  |  |  |  |  | MIC (C. auris AR Bank #381; Candidozyma auris, C. auris AR Bank #381, read-out: MIC): 0.98 µg/mL (≈ 4.24 µM); MIC (C. auris AR Bank #382; Candidozyma auris, C. auris AR Bank #382, read-out: MIC): 1.95 µg/mL (≈ 8.43 µM); MIC (C. auris AR Bank #383; Candidozyma auris, C. auris AR Bank #383, read-out: MIC): 1.95 µg/mL (≈ 8.43 µM); MIC (C. auris AR Bank #385; Candidozyma auris, C. auris AR Bank #385, read-out: MIC): 0.98 µg/mL (≈ 4.24 µM); MIC (C. auris AR Bank #386; Candidozyma auris, C. auris AR Bank #386, read-out: MIC): 0.49 µg/mL (≈ 2.12 µM); MIC (C. auris AR Bank #387; Candidozyma auris, C. auris AR Bank #387, read-out: MIC): 0.98 µg/mL (≈ 4.24 µM); MIC (C. auris AR Bank #388; Candidozyma auris, C. auris AR Bank #388, read-out: MIC): 0.98 µg/mL (≈ 4.24 µM); MIC (C. auris AR Bank #389; Candidozyma auris, C. auris AR Bank #389, read-out: MIC): 0.49 µg/mL (≈ 2.12 µM)
O=C(NNc1cccc(Cl)c1)c1ccc(F)cc1F [Compound 1b] | 3.9 µg/mL (≈ 13.8 µM) | 3.9 µg/mL (≈ 13.8 µM) | 15.6 µg/mL (≈ 55.2 µM) | 3.9 µg/mL (≈ 13.8 µM) | 7.8 µg/mL (≈ 27.6 µM) | 7.8 µg/mL (≈ 27.6 µM) | 3.9 µg/mL (≈ 13.8 µM) | 3.9 µg/mL (≈ 13.8 µM) | 
O=C(NNc1ccc(F)cc1)c1cccc(Br)n1 [Compound 6d] | 1.95 µg/mL (≈ 6.29 µM) | 0.98 µg/mL (≈ 3.16 µM) | 1.95 µg/mL (≈ 6.29 µM) | 0.98 µg/mL (≈ 3.16 µM) | 1.95 µg/mL (≈ 6.29 µM) | 0.98 µg/mL (≈ 3.16 µM) | 0.98 µg/mL (≈ 3.16 µM) | 1.95 µg/mL (≈ 6.29 µM) | 
O=C(NNc1ccc(F)cc1)c1ncc(F)cc1F [Compound 7d] | 1.95 µg/mL (≈ 7.3 µM) | 0.98 µg/mL (≈ 3.67 µM) | 1.95 µg/mL (≈ 7.3 µM) | 0.49 µg/mL (≈ 1.83 µM) | 0.98 µg/mL (≈ 3.67 µM) | 0.49 µg/mL (≈ 1.83 µM) | 0.49 µg/mL (≈ 1.83 µM) | 1.95 µg/mL (≈ 7.3 µM) | 
O=C(NNc1ccc(F)cc1)c1ccc(Br)cn1 [Compound 4d] | 1.95 µg/mL (≈ 6.29 µM) | 1.95 µg/mL (≈ 6.29 µM) | 7.8 µg/mL (≈ 25.2 µM) | 1.95 µg/mL (≈ 6.29 µM) | 3.9 µg/mL (≈ 12.6 µM) | 3.9 µg/mL (≈ 12.6 µM) | 1.95 µg/mL (≈ 6.29 µM) | 3.9 µg/mL (≈ 12.6 µM) | 
